Measurements taken from US12391646B2, “Using adiponectin receptor agonists to treat inflammation and bone diseases in diabetes” (Trustees of Tufts College, priority 2020, dated 2025).

Legend:
[1] = test system: DIO mice; assay: Systemic inflammation in DIO mice, oral gavage 14 days; format: in vivo; details: AdipoAI 25 mg/kg; for mRNA expression of IL-6 and IL-1β in WAT, spleen, bone marrow / serum levels of IL-6 and IL-1β: oral gavage 14 days, APR 50 mg/kg
Method: FIG. 3 AdipoAI decreases inflammation in DIO mice (n=6). DIO mice were orally gavaged with APR (50 mg/kg) or AdipoAI (25 mg/kg) for 14 days, and control animals (WT or DIO mice) were administered with equivalent volumes of DMSO. mRNA expression levels of pro-inflammatory cytokines in (a) WAT, (b) spleen and (c) bone marrow were measured by qRT-PCR and normalized to the level of β-actin mRNA. Data are expressed as mean±SEM. (d) Serum levels of IL-6 and IL-1β were measured by ELISA. Data are expressed as mean #SEM. Representative images of H&E (e) and IHC of F4/80 staining (f) of spleen tissue in DIO mice (n=6). Red arrow indicates multinucleated giant cells (megakaryocytes). One-way ANOVA test for multiple-group comparisons, * vs. WT-vehicle group, # vs. DIO-vehicle group. */#P<0.05, significant differences between each indicated group. ns, not significant.
The Ethics Committee on the Use and Care of Animals at Tufts University approved the study protocol (Boston, MA, USA). The animals received humane care according to the criteria outlined in the Guide for the Care and Use of Laboratory Animals prepared by the National Academy of Sciences and published by the National Institutes of Health. All experiments involving animals or animal tissue are reported in compliance with the guidelines of ARRIVE and BJP (Kilkenny et al., 2010; McGrath and Lilley, 2015). Experimental protocols and design adhere to BJP guidelines (Curtis et al., 2015). Wild-type (WT, C57BL/6J, Jax #000664), DIO (Jax #380050), and APN KO (Jax #008195) mice were purchased from the Jackson Laboratory. The DIO mice were fed with a high-fat diet (containing 60% kcal from fat; Jackson Laboratory) at 6 weeks of age and later. The WT mice were fed with ordinary diet as normal chow (NC)-fed mice, and APN KO mice were maintained and fed with an NC diet as previously described (Tu et al., 2011). For the LPS-induced endotoxemia model, male C57BL/6 mice aged 8 weeks received oral gavage with APR (50 mg/kg body weight) or AdipoAI (25 mg/kg body weight) for 24 h before by LPS (20 mg/kg body weight) treatment which was administered intraperitoneally whereas control animals were treated with equivalent volumes of normal PBS. Mouse survival in each group was monitored and recorded up to 84 h. All mice were killed at 1 h for detection of activation of inflammatory genes, at 6 h for determination of inflammatory factors in serum, and at 24 h for histological evaluation. Animal data were excluded from experiments based on pre-established criteria of visible abnormal tissue structure during sample harvest or other health issues, including fighting wounds.

[2] = test system: RAW 264.7 cells (osteoclast differentiation); assay: RANKL-induced osteoclast differentiation of RAW 264.7 cells; format: cell-based; details: for number of osteoclast-like cells (TRAP staining): co-culture with RANKL 6 days, AdipoRon 20 μM, AdipoAI 5 μM
Method: RAW 264.7 cells (ATCC, Manassas, VA, USA) were cultured and passaged in DMEM supplemented with 10% (v/v) FBS (Invitrogen, Grand Island, NY, USA) and 1% Penicillin-Streptomycin (Gibco, Gaithersburg, MD, USA). For the induction of osteoclastogenesis, RAW 264.7 cells were cultured 24 in α-MEM supplemented with 10% FBS and 1% Penicillin-Streptomycin in the presence of 100 ng/ml RANKL (Peprotech, Rocky Hill, NJ, USA) for 2 days, and subsequently treated or not with AdipoRon or AdipoAI for another 2 days changing cell culture medium every 2 days. After a total of […] of culture, morphologic examination was performed, as was mRNA and protein expression. To simulate high glucose environment in vitro, α-MEM was supplemented with D-glucose to 25 mmol/l (high glucose) or 5 mmol/l (physiological glucose). 20 mmol/l D-mannitol served as an osmotic control.
Total RNA was isolated from cell cultures and gingival soft tissues using TriZol reagent (Life Technologies, Carlsbad, CA, USA) according to the manufacturer's instructions^24. Reverse transcription was performed using the PrimeScript RT Master Mix (Takara Bio, Otsu, Japan) and real-time-qPCR analyses were performed using SYBR-Green Real-Time PCR Master Mix (Takara Bio, Otsu, Japan) as described earlier^27.

[3] = higher concentration, RANKL 100 ng/ml

SMILES | mRNA expression of IL-6 and IL-1β in WAT, spleen, bone marrow [1] | serum levels of IL-6 and IL-1β [1] | downregulation of TRAP mRNA expression ([2]; 5 μM, RANKL 100 ng/ml) | number of osteoclast-like cells (TRAP staining) [2] | inhibition of TRAP mRNA expression [2, 3] | inhibition of cathepsin K mRNA expression [2, 3] | megakaryocytes and macrophages in spleen (H&E, IHC F4/80) ([1]; 14 days) | downregulation of cathepsin K mRNA expression ([2]; 5 μM, RANKL 100 ng/ml)
O=C(COc1ccc(C(=O)c2ccccc2)cc1)NC1CCN(Cc2ccccc2)CC1 [AdipoRon, reference compound] | inhibited the expression levels of IL-6 and IL-1β | inhibited the expression levels of IL-6 and IL-1β | no significant inhibition in TRAP mRNA expression | significantly reduced the number of osteoclast-like cells | 64.5% | 65.1% |  | 
COc1ccc(CN2CCC(NC(=O)COc3ccc(C(=O)c4ccc(Cl)cc4)cc3)CC2)cc1 [Compound 3] | inhibited mRNA expression of IL-6 (Il6) and IL-1β (Il1β) | reduced IL-6 and IL-1β levels in the serum | 97.0% | significantly reduced the number of osteoclast-like cells |  |  | decreased quantity of megakaryocytes and macrophages | 87.5%
